Laboratory results taken from patent EP0811615A1, “1-Aryl-5-(substituted alkyl (thio) amido) pyrazoles and their use as pesticides” (RHONE-POULENC AGROCHIMIE, priority 1996, dated 1997).

How the values were obtained:
Format in all cases: in vivo
[1] = tested on: Mexican bean beetle; assay: Mexican bean beetle foliar spray test on bean plants; conditions: Epilachna varivestis, 120 h; foliar application at 100 ppm; second instar larvae, held five days; read-out: pest mortality MBB
Description: (§1) For mite, aphid, southern armyworm, Mexican bean beetle, and tobacco budworm tests, a solution or suspension was prepared by adding 10 mg of the test compound to a solution of 160 mg of dimethylformamide, 838 mg of acetone, 2 mg of a 3:1 ratio of Triton X-172 : Triton X-152 (respectively, mainly anionic and nonionic low foam emulsifiers which are each anhydrous blends of alkylaryl polyether alcohols with organic sulfonates), and […] of water. The result was a concentration of 100 ppm of the test compound.
(§2) Mexican bean beetle: Potted bean plants were placed on a revolving turntable and sprayed with 100 ml of the 100 ppm test compound formulation, sufficient to wet the plants to runoff, by use of a DeVilbiss spray gun set at 40 psig air pressure. As an untreated control, 100 ml of a water-acetone-DMF-emulsifier solution, containing no test compound, were also sprayed on plants. A treated control with a commercial technical compound, either cypermethrin or sulprofos, formulated in the same manner, was tested as a standard. When dry, the leaves were placed in plastic cups lined with moistened filter paper. Five randomly selected second instar Mexican bean beetle larvae were introduced into each cup which was closed and held for five days. Larvae which were unable to move the length of the body, even upon stimulation by prodding, were considered dead.

[2] = tested on: southern armyworm; assay: Southern armyworm foliar spray test on bean plants; conditions: Spodoptera eridania, 120 h; foliar application at 100 ppm; second instar larvae, held five days; read-out: pest mortality SAW
Description: as §1
as §2, with “Southern armyworm: Potted” for “Mexican bean beetle: Potted”, “bean plants,” for “bean plants”, “compound formulation” for “compound formulation, sufficient to wet the plants to runoff,”, “instar southern armyworm” for “instar Mexican bean beetle”

[3] = tested on: twospotted spider mite; assay: Twospotted spider mite test; conditions: Tetranychus urticae, foliar, 144 h, read-out: control of mites
Description: Twospotted spider mite: Leaves infested with adult and nymphal stages of the two-spotted spider mite, obtained from a stock culture were placed on the primary leaves of two bean plants growing in a 6 cm. peat pot. A sufficient number of mites (150-200) for testing were transferred to the fresh plants within a period of twenty-four hours. The potted plants (one pot per compound) were placed on a revolving turntable and sprayed, sufficient to wet the plants to runoff, with 100 ml of the 100 ppm test compound formulation by use of a DeVilbiss spray gun set at 40 psig. air pressure. As an untreated control, 100 ml of the water-acetone-DMF-emulsifler solution, containing no test compound, were also sprayed on infested plants. A treated control with a commercial technical compound, either dicofol or hexythiazox, formulated in the same manner, was tested as a standard. The sprayed plants were held for six days, after which a mortality count of motile forms was made.

[4] = tested on: southern root-knot nematode; assay: Southern root-knot nematode soil test on tomato; parameters: dose or concentration left out as unconfirmed; conditions: Meloidogyne incognita; Soil Conc. at 21 Kg/ha; second stage juveniles; read-out: pest mortality Nema (J2)
Description: For southern root-knot nematode and systemic tests for southern armyworm, cotton aphid, tobacco budworm and greenbug, a stock solution or suspension was prepared by adding 15 mg of the test compound to 250 mg of dimethylformamide, 1250 mg of acetone and 3 mg of the emulsifier blend referenced above. Water was then added to provide a test compound concentration of 150 ppm. When necessary, sonication was provided to insure complete dispersion.
Southern root-knot nematode: Infected roots of tomato plants, containing egg masses of southern root-knot nematode, were removed from a stock culture and cleaned of soil by shaking and washing with tap water. The nematode eggs were separated from the root tissue and rinsed with water. Samples of the egg suspension were placed on a fine screen over a receiving bowl, in which the water level was adjusted to be in contact with the screen. From the bowl, juveniles were collected on a fine screen. The bottom of a cone-shaped container was plugged with coarse vermiculite and then filled to within 1.5 cm of the top with about a 200 ml volume of pasteurized soil. Then into a hole made in the center of the soil in the cone was pipetted an aliquot of the 150 ppm test compound formulation. A treated control with a commercial technical compound, fenamifos, formulated in a similar manner, was tested as a standard. As an untreated control, an aliquot of a water-acetone-DMF-emulsifier solution, containing no test compound, was applied in a similar manner. Immediately after treatment of the soil with the test compound there were added to the top of each cone 1000 second stage juvenile southern root-knot nematodes. After 3 days, a single healthy tomato seedling was then transplanted into the cone. The cone, containing the infested soil and tomato seedling, was kept in the greenhouse for 3 weeks. At the termination of the test, […], […]

[5] = tested on: housefly; assay: House fly bait test; conditions: Musca domestica; bait application at 100 ppm; adult flies, after 24 hours; read-out: pest mortality HF
Description: For housefly tests, the formulation was initially prepared in a similar manner to the above, but in 16.3 g of water with corresponding adjustment of other components, providing a 200 ppm concentration. Final dilution with an equal volume of a 20% by weight aqueous solution of sucrose provided a 100 ppm concentration of the test compound. When necessary, sonication was provided to insure complete dispersion.
House fly: Four to six day old adult house flies were reared according to the specifications of the Chemical Specialties Manufacturing Association (Blue Book, McNair-Dorland Co., N.Y. 1954; pages 243-244, 261) under controlled conditions. The flies were immobilized by anesthetizing with carbon dioxide and twenty five immobilized individuals, males and females, were transferred to a cage consisting of a standard food strainer and a wrapping-paper-covered surface. Ten ml of the 100 ppm test compound formulation were added to a soufflé cup containing an absorbent cotton pad. As an untreated control, 10 ml of a water-acetone-DMF-emulsifier-sucrose solution, containing no test compound, were applied in a similar manner. A treated control with a commercial technical compound, malathion, formulated in the same manner, was tested as a standard. The bait cup was introduced inside the food strainer prior to admitting the anesthetized flies.

**Q.** For `COC(C)C(=O)Nc1c([S+]([O-])C(F)(F)F)c(C#N)nn1-c1c(Cl)cc(C(F)(F)F)cc1Cl` (centres unmarked) [Compound 24], which mortality at 100 ppm [1] is on record?
**A.** Its mortality at 100 ppm is 70 to 100%.

**Q.** What about the mortality at 100 ppm [2] of the same compound?
**A.** The mortality at 100 ppm was 70 to 100%.

**Q.** What about the mortality at 100 ppm [3] of the same compound?
**A.** Its mortality at 100 ppm is 30 to 70%.

**Q.** And the mortality [4]?
**A.** Its mortality is 70 to 100%.

**Q.** And the mortality at 100 ppm [5]?
**A.** The mortality at 100 ppm was 70 to 100%.
